Data on two molecules can be found in paper PMC12446476 (Nature Communications, 2025).

Values after ≈ are worked out from the molar mass of the structure shown. Read-outs that look alike come from different tables or passages of the source.

A word on the MIC: it is the lowest concentration that inhibits growth of the organism.

In assay [1] the test system is intracellular N. gonorrhoeae. Kind of assay: Intracellular killing in HeLa229 cells. The settings on record: within 24 h. Format: cell-based, Neisseria gonorrhoeae. The procedure: Intracellular killing was assessed within HeLa229 cells (European Collection of Authenticated Cell Cultures, London, UK) that were seeded at ~3 × 10^5 cells/mL and grown to 70–80% confluence in RPMI-glutamine media supplemented with 10% (v/v) heat-inactivated fetal bovine serum (FBS, Gibco, MA, USA). Cells were incubated at 37 °C with 5% CO2 for 24 h, then washed with serum-free RPMI-1640 prior to infection. N. gonorrhoeae was scraped from agar plates and resuspended in Dulbecco’s Phosphate Buffered Saline (DPBS, Sigma-Aldrich), pelleted, then resuspended in RPMI with 2% FBS. Bacterial suspensions were used to infect HeLa229 cells at a multiplicity of infection of 100:1. Plates were briefly centrifuged (500 × g for 5 min), then incubated for one hour. This incubation and all subsequent incubations were performed at 37 °C with 5% CO2. Non-adherent cells were removed by washing with serum-free RPMI, and the remaining extracellular bacteria were killed via resuspension in RPMI-glutamine supplemented with 2% FBS and 200 μg/mL gentamycin and incubation for one hour. […] Azithromycin-treated samples were included for control/comparison. […] Samples were diluted and plated onto chocolate II agar for viable bacteria quantification. Intracellular killing assays were performed at Microbiologics, Kalamazoo, MI, USA, using a method adapted from previous studies[68],[69].

The next assay concerns S. aureus ATCC 29213. Kind of assay: S. aureus neutropenic murine thigh infection model. Format: in vivo, mouse. The settings on record: S. aureus ATCC 29213, daily dose, 300 µg/mL ceftriaxone. Here is the method:
The S. aureus neutropenic murine thigh infection model was performed in accordance with the Guide for Care and Use of Laboratory Animals[75]. Animal rooms were maintained at a temperature range of 20–24 °C and humidity between 30% and 70%, with 12 h light/dark cycles. Female ICR mice (BioLASCO Taiwan Co., Ltd.) were rendered neutropenic via IP injection of cyclophosphamide four days before infection (150 mg/kg) and again one day before infection (100 mg/kg). Animals were anaesthetised with isoflurane (3–5%), then inoculated intramuscularly with S. aureus ATCC 29213 (~1 × 10^5 CFU/mouse). […] Animals were sacrificed via CO2 asphyxiation at either 2 h (baseline), 26 and/or 50 h post-infection. Thigh tissues were harvested and homogenised in 3 mL sterile PBS (pH 7.4). Bacterial burdens were determined by performing 10-fold serial dilutions and plating on nutrient agar plates.

The next assay has as its system N. gonorrhoeae. Kind of assay: MIC determination, agar dilution (CLSI). As to AMR phenotype (susceptibility category, EUCAST): key: S susceptible; R resistant. Format: cell-based, Neisseria gonorrhoeae. As to conditions: for MIC: Neisseria gonorrhoeae. The essentials: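 For N. gonorrhoeae, WHO 2024 reference strains served as quality control, only whole doubling-dilution MICs were reported, and isolates were classified by EUCAST v14.0 breakpoints or ECOFF. Time-kill assays followed CLSI in Columbia broth with 1% IsoVitaleX, and viable counts came from plating serial dilutions on GC agar with IsoVitaleX.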
Background: Agar dilution tests growth on a series of plates holding different concentrations.

`CC[C@H]1OC(=O)[C@H](C)[C@@H](O[C@H]2C[C@@](C)(OC)[C@@H](O)[C@H](C)O2)[C@H](C)[C@@H](O[C@@H]2O[C@H](C)C[C@H](N(C)C)[C@H]2O)[C@](C)(O)C[C@@H](C)CN(C)[C@H](C)[C@@H](O)[C@]1(C)O` [Azithromycin]: the “reduction of intracellular bacteria” value is recorded as ≥ 3.3 log10CFU/mL in assay [1] (ATCC 49226 in HeLa229 cells) and ≥ 2.8 log10CFU/mL in assay [1] (WHO X in HeLa229 cells).
Regarding `CO/N=C(\C(=O)N[C@@H]1C(=O)N2C(C(=O)O)=C(CSc3nc(=O)c(=O)[nH]n3C)CS[C@H]12)c1csc(N)n1` [Ceftriaxone, reference compound], the results for the “Mean Diff. 0h vs. treatment, log10 CFU” value in the assay on S. aureus ATCC 29213 (24h) and with S. aureus ATCC 29213 (48h) were 1.71 and 2.684, respectively. For the same molecule, the “susceptibility of all isolates” value with N. gonorrhoeae (100 contemporary clinical N. gonorrhoeae isolates, EUCAST) is listed as “susceptible”. Moreover, the MIC in the assay on N. gonorrhoeae (ATCC700825, ATCC 700825, mode of multiple measures, read-out: MIC) came to 0.002 µg/mL (≈ 0.00361 µM); in the assay on N. gonorrhoeae (WHO H, agar dilution, read-out: MIC), 0.25 µg/mL (≈ 0.451 µM); in the assay with N. gonorrhoeae (WHO K, agar dilution, read-out: MIC), 0.06 µg/mL (≈ 0.108 µM); in the assay with N. gonorrhoeae (WHO L, agar dilution, read-out: MIC), 0.25 µg/mL (≈ 0.451 µM); in the assay with N. gonorrhoeae (WHO Q, agar dilution, read-out: MIC), 0.5 µg/mL (≈ 0.902 µM); with N. gonorrhoeae (WHO R, agar dilution, read-out: MIC), 0.5 µg/mL (≈ 0.902 µM). Further, the MIC in the assay with N. gonorrhoeae (WHO S2, agar dilution, read-out: MIC) is < 0.008 µg/mL; with N. gonorrhoeae (WHO V, agar dilution, read-out: MIC) it was 0.06 µg/mL (≈ 0.108 µM); with N. gonorrhoeae (WHO X-07 (CIP-R, CRO-R), mode of multiple measures, read-out: MIC) it was 2 µg/mL (≈ 3.61 µM); against N. gonorrhoeae (WHO Y, agar dilution), 1 µg/mL (≈ 1.8 µM). In addition, the “AMR phenotype (susceptibility category, EUCAST)” value (from here on “AMR phenotype”) is “S” with N. gonorrhoeae (WHO F); “R” with N. gonorrhoeae (WHO H); “S” in the assay with N. gonorrhoeae (WHO K); “R” with N. gonorrhoeae (WHO L); “S” in the assay on N. gonorrhoeae (WHO M); “S” with N. gonorrhoeae (WHO O). The “AMR phenotype” value is listed as “S” with N. gonorrhoeae (WHO P); “R” in the assay with N. gonorrhoeae (WHO Q); “R” with N. gonorrhoeae (WHO R); “S” in the assay on N. gonorrhoeae (WHO S2); “S” in the assay with N. gonorrhoeae (WHO U); “S” in the assay with N. gonorrhoeae (WHO V). Moreover, the “AMR phenotype” value in the assay on N. gonorrhoeae (WHO X), in the assay on N. gonorrhoeae (WHO Y) and in the assay on N. gonorrhoeae (WHO Z) was “R” throughout.
